Experimental data from patent publication US20250368629A1, “FLAVONOID COMPOUNDS AND METHODS AND MATERIALS FOR USING FLAVONOID COMPOUNDS TO TREAT FIBROTIC CONDITIONS” (Mayo Foundation for Medical Education and Research, priority 2022, published 2025).

Legend:
[1] = system: wild type mice; experiment: Comparative flavonoid efficacy and toxicity in aged brain and liver (real-time PCR); format: in vivo, mouse
Source text: Five-month-old and twenty-eight month old wild type mice were oral gavage treated with the indicated concentrations of flavonoids (F, Q, compound 19, or compound 20) or vehicle for four consecutive days and were euthanized one week later.

[2] = system: Human adult lung fibroblasts (passage 3); experiment: Fibroblast activation (TGFβ, alpha-smooth muscle actin); format: cell-based; conditions: +2 ng/mL TGFβ, 96 hours, alpha-smooth muscle actin intensity
Procedure: Human adult lung fibroblasts (passage 3) were plated into 96-well plates and treated with the indicated compound (6-point dose-response) +2 ng/mL TGFβ to stimulated fibroblast activation. Cells were incubated for 96 hours, fixed using 4% PFA, permeabilized using 0.25% triton x-100, and stained using a primary antibody recognizing alpha-smooth muscle actin and a secondary fluorescent conjugated antibody, and DAPI. Cells were then imaged using a 4× objective on a Cytation5 microscope and alpha-smooth muscle actin intensity was quantified using automated software (Biotek Gen5). Data shown are the IC50 values for each compounds efficacy at reducing expression of alpha-smooth muscle actin, calculated from the calculated dose-response curves, N=3 independent.

[3] = system: low passage proliferating fibroblasts; experiment: Apoptosis of low passage proliferating lung fibroblasts (cleaved caspase-3, DAPI); format: cell-based, human; conditions: low passage proliferating fibroblasts from the same donor, 96 hours, 6-point dose-response, N=3; for EC50: read-out: Proliferating fibroblast apoptosis EC50
Procedure: (§1) Human adult lung fibroblasts were replicatively passaged until senescence (confirmed by RNA and senescence associated beta galactosidase staining). In a parallel experiment, low passage proliferating fibroblasts from the same donor were compared. Cells were plated into 96-well plates and treated with the indicated compound (6-point dose-response) and incubated for 96 hours. Cells were then fixed using 4% PFA, permeabilized using 0.25% triton x-100, and nuclear stained using a primary antibody for cleaved caspase-3, secondary fluorescence conjugated antibody, and DAPI. Cells were then imaged using a 4× objective on a Cytation5 microscope and cell counts were quantified using automated software (Biotek Gen5). Data shown are the EC50 values calculated for each compounds efficacy to induce apoptosis in senescence vs. proliferating lung fibroblasts, from the calculated dose-response curves, N=3 independent experiments.

[4] = system: senescent human adult lung fibroblasts; experiment: Apoptosis of senescent lung fibroblasts (cleaved caspase-3, DAPI); format: cell-based; conditions: replicatively senescent human adult lung fibroblasts, 96 hours, 6-point dose-response, N=3; for EC50: read-out: Senescent fibroblast apoptosis EC50
Procedure: as §1

[5] = in vitro; format: in vitro ADME; conditions: rat; for Plasma bound / Plasma unbound: 4 h
Procedure: Plasma protein binding assays were also performed (Table 2). Compounds were incubated with rat plasma for 4 hours. The percent of F-4N recovered was analyzed by LC-MS. Warfarin was used as a control for a compound with high plasma protein binding. Analysis performed by Cyprotex (Framingham, MA).

[6] = system: senescent human adult lung fibroblasts; experiment: Senescent fibroblast survival (DAPI cell counts); format: cell-based; conditions: 96 hours, 3 point and 6-point dose response
Procedure: (§2) For senescent fibroblast survival experiments, human adult lung fibroblasts were replicatively passaged until senescence (confirmed by RNA and senescence associated beta galactosidase staining). Cells were then plated into 96-well plates and treated with the indicated compound and incubated for 96 hours. Cells were then fixed using 4% PFA, permeabilized using 0.25% triton x-100, and nuclear stained using DAPI. Cells were then imaged using a 4× objective on a Cytation5 microscope and cell counts were quantified using automated software (Biotek Gen5). Data shown are plotted as % survival, normalized to the vehicle treated well. Mean+/−SEM, N=3 independent experiments. For the TGFβ stimulated collagen deposition experiments (square datapoints), human adult lung fibroblasts (passage 3) were plated into 96-well plates and treated with the indicated compound +2 ng/mL TGFβ to stimulated collagen expression. Cells were incubated for 96 hours, fixed using 4% PFA, permeabilized using 0.25% triton x-100, and stained using a primary antibody recognizing type I collagen and a secondary infrared conjugated antibody. Wells were then imaged at 1× using a Odyssey Lx (LI-CORE) infrared imager and collagen intensity was quantified using automated software. Data shown are plotted as % collagen intensity, normalized to the vehicle treated well. Mean+/−SEM, N=3 independent experiments.

[7] = system: Human adult lung fibroblasts (passage 3); experiment: TGFβ stimulated collagen deposition; format: cell-based; conditions: +2 ng/mL TGFβ, 96 hours
Procedure: as §2

[8] = system: col1a2-mTmG mice; experiment: Bleomycin injury and lung fibrosis, flow sorted lung cell populations, qPCR; format: in vivo, mouse; conditions: daily from day 10 after bleomycin injury, lungs sorted on day 14
Procedure: Seven days prior to injury col1a2-mTmG mice were treated with tamoxifen to turn on GFP expression in collagen producing fibroblasts. F-19 was administered daily starting on day 10 after injury, lungs were isolated, and lung tissue was flow sorted for fibroblasts, epithelial cells, and leukocytes on day 14. The sorted cells were subjected to RNA isolation followed by qPCR analysis of the indicated genes in each population of cells. N=3 mice/group.

[9] = molecular target: T1, DRAK1 (Homo sapiens, UniProt Q9UEE5); experiment: DRAK1 kinase activity assay (radiolabeled ATP, Reaction Biology); format: biochemical; conditions: FIG. 30
T1 construct: purchased Reaction Biology
T1 sequence (Q9UEE5 1-414): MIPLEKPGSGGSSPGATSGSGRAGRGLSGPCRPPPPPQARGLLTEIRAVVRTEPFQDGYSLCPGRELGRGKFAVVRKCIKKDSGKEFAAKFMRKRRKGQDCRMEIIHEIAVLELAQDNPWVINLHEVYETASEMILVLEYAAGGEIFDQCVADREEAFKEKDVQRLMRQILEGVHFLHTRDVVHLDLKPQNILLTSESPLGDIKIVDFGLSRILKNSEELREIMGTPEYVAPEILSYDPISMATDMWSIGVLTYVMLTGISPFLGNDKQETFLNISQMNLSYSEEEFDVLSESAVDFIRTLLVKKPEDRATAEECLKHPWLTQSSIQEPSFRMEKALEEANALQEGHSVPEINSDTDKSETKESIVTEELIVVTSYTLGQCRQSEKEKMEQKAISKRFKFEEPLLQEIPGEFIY
Procedure: DRAK1 kinase activity was also assessed. […] A DRAK1 kinase activity was performed by Reaction Biology. DRAK1 kinase activity was measured and plotted (FIG. 30).

Row | SMILES | EC50 [2] [µM] | EC50 [3] [µM] | EC50 [4] [µM] | further results
1 | O=c1c(O)c(-c2ccc(O)c(O)c2)oc2cc(O)ccc12 [fisetin] |  |  |  | CD68 expression (indicator of inflammatory activation) in brain or liver ([1]; mouse, in vivo, po): lack of drug-induced toxicity
2 | COc1ccc2oc(-c3ccc(OCc4ccccc4)cc3)c(O)c(=O)c2c1 [6-MeOH—F-20] | 2 | 5.1 | 0.8 | 
3 | O=c1c(O)c(-c2ccc(OCc3cccnc3)cc2)oc2ccccc12 [F—3N] |  |  | 44.1 | Fibroblast activation (EC50) [2]: inactive; Proliferating fibroblast apoptosis EC50 [3]: inactive
4 | CC(=O)CC(c1ccccc1)c1c(O)c2ccccc2oc1=O (stereo not shown) [Warfarin] |  |  |  | recovery at 4 h, 2 μM [5]: 100%; Plasma bound ([5]; 2 μM): 99%; Plasma unbound ([5]; 2 μM): 0.971%
5 | O=c1c(O)c(-c2ccc(O)c(O)c2)oc2cc(O)cc(O)c12 [Quercetin, quercetin] |  |  |  | CD68 expression (indicator of inflammatory activation) in brain or liver ([1]; oral gavage four consecutive days, euthanized one week later): lack of drug-induced toxicity; recovery at 4 h, 5 μM [5]: 0.8%; Plasma bound ([5]; 5 μM): 95%; Plasma unbound ([5]; 5 μM): 5.0%
6 | COc1cccc2oc(-c3ccc(OCc4ccccc4)cc3)c(O)c(=O)c12 [5-MeOH—F-20] | 0.9 | 5.5 | 0.35 | 
7 | CCOc1ccc(-c2oc3ccc(C)cc3c(=O)c2O)cc1OC [2-(4-ethoxy-3-methoxyphenyl)-3-hydroxy-6-methylchromen-4-one] |  |  |  | senescent fibroblast survival (in words) [6]: effective toxicity against senescent cells; TGFβ stimulated collagen deposition (in words) [7]: blocked collagen deposition
8 | CCOc1ccc(-c2oc3ccccc3c(=O)c2O)cc1OC [F-19(3MeOH)] | 6.4 | 10.5 |  | 
9 | CCCOc1ccc(-c2oc3ccccc3c(=O)c2O)cc1 [F-19(Me)] | 4 | 19.5 | 3.4 | 
10 | CCOc1ccc(-c2oc3ccccc3c(=O)c2O)cc1 [F-19] | 2.4 | 24.5 | 2.4 | senescence markers or inflammatory cytokines in leukocytes (CD45+ cells), qPCR [8]: No changes
11 | CCOc1ccc(-c2oc3ccccc3c(=O)c2O)cc1OCC [2-(3,4-diethoxyphenyl)-3-hydroxy-4h-1-benzopyran-4-one] |  |  |  | senescent fibroblast survival (in words) [6]: effective toxicity against senescent cells; TGFβ stimulated collagen deposition (in words) [7]: blocked collagen deposition
12 | CCOc1ccc(-c2oc3ccc(OC)cc3c(=O)c2O)cc1 [6-MeOH—F-19] | 4 | 15.1 | 2.7 | 
13 | COc1cccc2oc(-c3ccc(OCc4ccncc4)cc3)c(O)c(=O)c12 [5-MeOH—F—4N] | 2.1 |  |  | Proliferating fibroblast apoptosis EC50 [3]: inactive; Senescent fibroblast apoptosis EC50 [4]: inactive; DRAK1 kinase activity [9]: inactive
14 | O=c1c(O)c(-c2ccc(OCc3ccccn3)cc2)oc2ccccc12 [F—2N] |  |  |  | Fibroblast activation (EC50) [2]: inactive; Proliferating fibroblast apoptosis EC50 [3]: inactive; Senescent fibroblast apoptosis EC50 [4]: inactive
15 | O=c1c(O)c(-c2ccc(OCc3ccccc3)cc2)oc2ccccc12 [F-20] | 2 | 27.6 | 1.5 | 
16 | O=c1c(O)c(-c2ccc(OCC3CC3)cc2)oc2ccccc12 [F—CP] | 1.1 | 10.9 | 0.9 | 
